The source made the active and inactive calls. No cut-off for these calls is given here.
Key:
L6 = test: Cytotoxicity against rat L6 cells incubated for 6 days by resazurin dye based assay; assay type: cell-based; conditions: L6, 144 h
Calf thymus DNA [1] = test: Binding affinity to calf thymus DNA assessed as binding constant by fluorescence spectra analysis; assay type: nucleic-acid assay; conditions: Bos taurus
[2] = test system: Trypanosoma brucei brucei; test: Potency index, ratio of nifurtimox IC50 to compound IC50 for antitrypanosomal activity against blood stream form of Trypanosoma brucei brucei 221; assay type: functional
RNA = test: Binding affinity to major groove of ds-RNA (unknown origin) assessed as positive ICD band by CD spectroscopy; assay type: nucleic-acid assay
[3] = test system: Poly(dA-dU)oligonucleotide; test: Binding affinity to poly A-poly U (unknown origin) assessed as binding constant by fluorescence spectra analysis; assay type: nucleic-acid assay
[4] = Selectivity index, ratio of IC50 for rat L6 cells to IC50 for Trypanosoma brucei brucei 221; assay type: toxicity; conditions: read-out: Ratio IC50
[5] = test system: Trypanosoma brucei brucei; test: Antitrypanosomal activity against bloodstream form of Trypanosoma brucei brucei 221 assessed as parasite growth inhibition at 100 ug/ml incubated for 48 hrs by resazurin staining based assay relative to control; assay type: functional
[6] = test system: Trypanosoma brucei brucei; test: Antitrypanosomal activity against bloodstream form of Trypanosoma brucei brucei 221 assessed as parasite growth inhibition incubated for 48 hrs by resazurin staining based assay; assay type: functional, organism-based; conditions: for IC50: Trypanosoma brucei, 221, 48 h; for IC90: Trypanosoma brucei, 221, time 48 hrs
dsDNA = test: Binding affinity to minor groove of ds-DNA (unknown origin) assessed as positive ICD band by CD spectroscopy; assay type: nucleic-acid assay
[7] = test system: Trypanosoma brucei brucei; test: Antitrypanosomal activity against bloodstream form of Trypanosoma brucei brucei 221 assessed as parasite growth inhibition at 1 ug/ml incubated for 48 hrs by resazurin staining based assay relative to control; assay type: functional
[8] = Efflux ratio of apparent permeability from basolateral to apical side over apical to basolateral side in MDCK-MDR1 cells; assay type: ADME, cell-based, Canis lupus familiaris; conditions: dog
[9] = test system: Poly(dA-dT)oligonucleotide; test: Binding affinity to p(dAdT)2 (unknown origin) assessed as binding constant by fluorescence spectra analysis; assay type: nucleic-acid assay
Calf thymus DNA [10] = test: Binding affinity to calf thymus DNA assessed as thermal stability by measuring melting temperature by spectrophotometric method; assay type: nucleic-acid assay; conditions: Bos taurus
[11] = Apparent permeability across apical to basolateral side in dog MDCK-MDR1 cells incubated for 60 mins by LC-MS/MS analysis; assay type: ADME, cell-based, Canis lupus familiaris
[12] = test system: Poly(dA-dU)oligonucleotide; test: Binding affinity to poly A-poly U (unknown origin) assessed as thermal stability by measuring melting temperature by spectrophotometric method; assay type: nucleic-acid assay
[13] = Apparent permeability across basolateral to apical side in dog MDCK-MDR1 cells incubated for 60 mins by LC-MS/MS analysis; assay type: ADME, cell-based, Canis lupus familiaris
[14] = test system: Poly(dA-dT)oligonucleotide; test: Binding affinity to poly (dA-dT)2 (unknown origin) assessed as thermal stability by measuring melting temperature by spectrophotometric method; assay type: nucleic-acid assay
[15] = test system: Trypanosoma brucei brucei; test: Antitrypanosomal activity against bloodstream form of Trypanosoma brucei brucei 221 assessed as parasite growth inhibition at 10 ug/ml incubated for 48 hrs by resazurin staining based assay relative to control; assay type: functional
[16] = test system: Poly(dG-dC)oligonucleotide; test: Binding affinity to p(dGdC)2 (unknown origin) assessed as binding constant by fluorescence spectra analysis; assay type: nucleic-acid assay
[17] = test system: Trypanosoma brucei brucei; test: Antitrypanosomal activity against bloodstream form of Trypanosoma brucei brucei assessed as parasite growth inhibition incubated for 3 days by alamar blue staining based assay; conditions: 72 h

efflux ratio [8] | Papp A→B at 1 h [11] [×10⁻⁶ cm/s] | Papp B→A at 1 h [13] [×10⁻⁶ cm/s] | SMILES | inhibition at 100 µg/mL [5] [%] | further results
2.38 | 0.27 | 0.63 | CCN(CC)CCOc1ccc(-c2nc3cc(C4=NCCN4)ccc3[nH]2)cc1.Cl.Cl | 100 | IC50 (L6): > 250000 nM; log Ks (Calf thymus DNA [1]): 5.9; Ratio IC50 [2]: >2; Activity (RNA): Active; log Ks [3]: 5.1; selectivity ratio [4]: > 530; IC50 [6]: 470 nM; IC90 [6]: 1820 nM; Activity (dsDNA): Active; inhibition at 1 µg/mL [7]: > 90%; log Ks [9]: 5.2; ΔTm (Calf thymus DNA [10]): 6.4 °C; ΔTm [12]: 4.5 °C; log Ks [16]: 5.3; ΔTm [14]: 17.9 °C
1.86 | 0.48 | 0.89 | COc1cc(-c2nc3cc(C4=NCCN4)ccc3[nH]2)ccc1OCc1cn(CCN2CCOCC2)nn1.Cl.Cl | 100 | 
2.92 | 0.17 | 0.49 | CCN(CC)CCOc1ccc(-c2nc3cc(C4=NCCN4)ccc3[nH]2)cc1F.Cl.Cl | 100 | IC50 (L6): > 250000 nM; log Ks (Calf thymus DNA [1]): 6; log Ks [3]: 4.9; selectivity ratio [4]: > 68; IC50 [6]: 3670 nM; inhibition at 1 µg/mL [7]: > 90%; log Ks [9]: 6.4; ΔTm (Calf thymus DNA [10]): 4.5 °C; ΔTm [12]: 2.4 °C; log Ks [16]: 4.5; ΔTm [14]: 14.7 °C
1.16 | 0.86 | 0.99 | Cl.Cl.O=C(COc1ccc(-c2nc3cc(C4=NCCN4)ccc3[nH]2)cc1F)N1CCOCC1 | 100 | 
 | < 0.1 | < 0.1 | Cl.O=C(COc1ccc(-c2nc3cc(C4=NCCN4)ccc3[nH]2)cc1F)c1ccccc1 | 100 | 
 | < 0.1 |  | COc1cc(-c2nc3cc(C4=NCCN4)ccc3[nH]2)ccc1OCC(=O)c1ccccc1.Cl | 100 | 
 | < 0.1 | 0.11 | Cl.O=C(COc1ccc(-c2nc3cc(C4=NCCN4)ccc3[nH]2)cc1)c1ccccc1 | 100 | 
1.09 | 1.09 | 1.18 | Cl.Cl.c1cc(-c2nc3cc(C4=NCCN4)ccc3[nH]2)ccc1OCc1cn(CCN2CCOCC2)nn1 | 100 | IC50 [6]: > 4000 nM; inhibition at 1 µg/mL [7]: > 90%

Continued, compound first:

SMILES | efflux ratio [8] | Papp A→B at 1 h [11] [×10⁻⁶ cm/s] | Papp B→A at 1 h [13] [×10⁻⁶ cm/s] | inhibition at 100 µg/mL [5] [%] | further results
CCN(CC)CCOc1ccc(-c2nc3cc(C4=NCCN4)ccc3[nH]2)cc1OC.Cl.Cl | > 5 | < 0.1 | 0.5 | 100 | IC50 (L6): > 250000 nM; log Ks (Calf thymus DNA [1]): 6.8; Ratio IC50 [2]: >2; Activity (RNA): Active; log Ks [3]: 5.4; selectivity ratio [4]: > 350; IC50 [6]: 710 nM; IC90 [6]: 1470 nM; Activity (dsDNA): Active; inhibition at 1 µg/mL [7]: > 90%; log Ks [9]: 7.1; ΔTm (Calf thymus DNA [10]): 7.2 °C; ΔTm [12]: 2.3 °C; ΔTm [14]: 19.3 °C
Cl.Cl.Fc1cc(-c2nc3cc(C4=NCCN4)ccc3[nH]2)ccc1OCCN1CCOCC1 | 1.7 | 0.49 | 0.84 | 100 | 
Cl.Fc1cc(-c2nc3cc(C4=NCCN4)ccc3[nH]2)ccc1OCc1ccccn1 | > 2.4 | < 0.1 | 0.2 | 100 | inhibition at 10 µg/mL [15]: 40%
COc1cc(-c2nc3cc(C4=NCCN4)ccc3[nH]2)ccc1OCc1ccccn1.Cl | 4.22 | 0.12 | 0.52 | 100 | 
Cl.c1cc(-c2nc3cc(C4=NCCN4)ccc3[nH]2)ccc1OCc1c[nH]nn1 | 1.81 | 0.46 | 0.84 | 100 | IC50 [6]: > 4000 nM; inhibition at 1 µg/mL [7]: > 90%
Cl.c1cc(-c2nc3cc(C4=NCCN4)ccc3[nH]2)ccc1OCCN1CCOCC1 | 1.4 | 0.49 | 0.69 | 100 | 
COc1cc(-c2nc3cc(C4=NCCN4)ccc3[nH]2)ccc1OCCN1CCOCC1.Cl.Cl | 1.04 | 0.64 | 0.67 | 100 | 
Cl.Fc1cc(-c2nc3cc(C4=NCCN4)ccc3[nH]2)ccc1OCc1cn(Cc2ccccc2)nn1 |  | < 0.1 | 0.09 | 100 | 
CC1CS(=O)(=O)CCN1/N=C/c1ccc([N+](=O)[O-])o1 (stereo not given) [NIFURTIMOX] |  |  |  |  | IC50 [17]: 2000 nM
Cl.Cl.Fc1cc(-c2nc3cc(C4=NCCN4)ccc3[nH]2)ccc1OCc1cn(CCN2CCOCC2)nn1 | 1.64 | 0.49 | 0.8 | 100 | IC50 [6]: > 4000 nM
COc1cc(-c2nc3cc(C4=NCCN4)ccc3[nH]2)ccc1OCC(=O)N1CCOCC1.Cl.Cl | 0.78 | 1.76 | 1.38 | 100 | 
COc1cc(-c2nc3cc(C4=NCCN4)ccc3[nH]2)ccc1OCc1cn(Cc2ccccc2)nn1.Cl |  | < 0.1 | < 0.1 | 100 | 
Cl.c1ccc(COc2ccc(-c3nc4cc(C5=NCCN5)ccc4[nH]3)cc2)nc1 | 7.82 | 0.07 | 0.51 | 100 | 
Cl.Cl.O=C(COc1ccc(-c2nc3cc(C4=NCCN4)ccc3[nH]2)cc1)N1CCOCC1 | 1.44 | 1.06 | 1.53 | 100 | 

From ChEMBL document CHEMBL4706577, “Design, synthesis, antitrypanosomal activity, DNA/RNA binding and in vitro ADME profiling of novel imidazoline-substituted 2-arylbenzimidazoles” (Eur J Med Chem, 2020)
